The subject of test [1] is MCF-7 cells. Briefly: senescence-associated β-galactosidase (SA-β-gal) positive cells. The conditions noted are these: 7-day treatment (FIG. 3 legend: 8 days); concentrations as in FIG. 2. Format: cell-based, human. From the text:
The bars represent percentages of SA-β-gal+ cells after 8 days of treatment with the indicated compounds (in triplicate). The compounds were used at the same concentrations as in FIG. 2.
(§1) To test this, we have analyzed the effects of different compounds on the growth of MCF-7 cells, as measured by the cell number after 7 days exposure to the compounds (FIG. 2) and on the fraction of cells expressing the senescence-associated β-galactosidase activity (SA-β-gal), a marker of senescence, after 7-day treatment with the compounds (FIG. 3).

In test [2] the test system is MCF-7 cells. Briefly: MCF-7 cell growth, cell number after 7 days. Type of test: cell-based, human. Particulars: 100 nM RA, LGD1550, LGD1268, 10 μM LG100815, LG101208. As for the experimental part: The bars represent cell number after 7 days of culture with the addition of DMSO (control), 100 nM RA, 100 nM RAR agonist LGD1550, 100 nM RXR agonist LGD1268, 10 μM RAR antagonist LG100815, and 10 μM RXR antagonist LG101208. Experiments were done in triplicate, and the results are expressed relative to the average of the control.
as §1

With `CC(/C=C/C=C(\C)c1cc(C(C)(C)C)cc(C(C)(C)C)c1)=C\C(=O)O` [LGD1550], the “induction of senescent phenotype (SA-β-gal+ cells)” value with MCF-7 cells [1] is on record as “induced SA-β-gal to an extent similar to that of RA”. In addition, the “effect on MCF-7 cell growth (cell number)” value with MCF-7 cells [2] is listed as “inhibited the cell growth”.

The values above are taken from US20060217305A1, “Induction of tumor cell senescence by retinoid receptor agonists and antagonists” (Ordway Research Institute, Inc., priority 2005, published 2006).
